In patent US10442807B2, “Aryl substituted bicyclic compounds as herbicides” (FMC Corporation, priority 2015, dated 2019):

Tests used:
Format in all cases: in vivo
[1] = system: kochia (Kochia scoparia); test: Test A preemergence, directed soil spray, visual injury rating; settings: approx. 10 d, 0 = no effect, 100 = complete control
Description: (§1) Seeds of plant species selected from barnyardgrass (Echinochloa crus-galli), kochia (Kochia scoparia), ragweed (common ragweed, Ambrosia elation), ryegrass, Italian (Italian ryegrass, Lolium multiflorum), foxtail, giant (giant foxtail, Setaria faberii), and pigweed (Amaranthus retroflexus), were planted into a blend of loam soil and sand and treated preemergence with a directed soil spray using test chemicals formulated in a non-phytotoxic solvent mixture which included a surfactant. At the same time, plants selected from these weed species and also blackgrass (Alopecurus myosuroides), galium (catchweed bedstraw, Galium aparine), wheat (Triticum aestivum), and corn (Zea mays) were planted in pots containing the same blend of loam soil and sand and treated with postemergence applications of test chemicals formulated in the same manner. Plants ranged in height from 2 to 10 cm and were in the one- to two-leaf stage for the postemergence treatment. Treated plants and untreated controls were maintained in a greenhouse for approximately 10 d, after which time all treated plants were compared to untreated controls and visually evaluated for injury. Plant response ratings, summarized in Table A, are based on a 0 to 100 scale where 0 is no effect and 100 is complete control. A dash (-) response means no test result.

[2] = system: foxtail, giant (giant foxtail, Setaria faberii); test: as above; settings: approx. 10 d, 0 = no effect, 100 = complete control
Description: as §1

[3] = system: pigweed (Amaranthus retroflexus); test: as above; settings: approx. 10 d, 0 = no effect, 100 = complete control
Description: as §1

[4] = system: barnyardgrass (Echinochloa crus-galli); test: as above; settings: approx. 10 d, 0 = no effect, 100 = complete control
Description: as §1

[5] = system: ryegrass, Italian (Italian ryegrass, Lolium multiflorum); test: as above; settings: approx. 10 d, 0 = no effect, 100 = complete control
Description: as §1

[6] = system: ragweed (common ragweed, Ambrosia elation); test: as above; settings: approx. 10 d, 0 = no effect, 100 = complete control
Description: as §1

[7] = system: sedge, umbrella (small-flower umbrella sedge, Cyperus difformis); test: Test B flooded paddy test, visual plant response rating; settings: 250 g ai/ha; applied to paddy water at 2-leaf stage; rated after 13 to 15 days; scale 0 to 100, 0 is no effect, 100 is complete control
Description: (§2) At time of treatment, test pots were flooded to 3 cm above the soil surface, treated by application of test compounds directly to the paddy water, and then maintained at that water depth for the duration of the test. Treated plants and controls were maintained in a greenhouse for 13 to 15 days, after which time all species were compared to controls and visually evaluated. Plant response ratings, summarized in Table B, are based on a scale of 0 to 100 where 0 is no effect and 100 is complete control. A dash (-) response means no test result.

[8] = system: barnyardgrass (Echinochloa crus-galli); test: as above; settings: 250 g ai/ha; applied to paddy water at 2-leaf stage; rated after 13 to 15 days; scale 0 to 100, 0 is no effect, 100 is complete control
Description: as §2

[9] = system: rice (Oryza sativa); test: as above; settings: 250 g ai/ha; applied to paddy water at 2-leaf stage; rated after 13 to 15 days; scale 0 to 100, 0 is no effect, 100 is complete control
Description: as §2

[10] = system: ducksalad (Heteranthera limosa); test: as above; settings: 250 g ai/ha; applied to paddy water at 2-leaf stage; rated after 13 to 15 days; scale 0 to 100, 0 is no effect, 100 is complete control
Description: as §2

[11] = system: galium (catchweed bedstraw, Galium aparine); test: Test A postemergence application, visual injury rating; settings: approx. 10 d, 0 = no effect, 100 = complete control
Description: as §1

[12] = system: kochia (Kochia scoparia); test: as above; settings: approx. 10 d, 0 = no effect, 100 = complete control
Description: as §1

[13] = system: corn (Zea mays); test: as above; settings: approx. 10 d, 0 = no effect, 100 = complete control
Description: as §1

[14] = system: foxtail, giant (giant foxtail, Setaria faberii); test: as above; settings: approx. 10 d, 0 = no effect, 100 = complete control
Description: as §1

[15] = system: pigweed (Amaranthus retroflexus); test: as above; settings: approx. 10 d, 0 = no effect, 100 = complete control
Description: as §1

[16] = system: barnyardgrass (Echinochloa crus-galli); test: as above; settings: approx. 10 d, 0 = no effect, 100 = complete control
Description: as §1

[17] = system: wheat (Triticum aestivum); test: as above; settings: approx. 10 d, 0 = no effect, 100 = complete control
Description: as §1

[18] = system: ryegrass, Italian (Italian ryegrass, Lolium multiflorum); test: as above; settings: approx. 10 d, 0 = no effect, 100 = complete control
Description: as §1

[19] = system: ragweed (common ragweed, Ambrosia elation); test: as above; settings: approx. 10 d, 0 = no effect, 100 = complete control
Description: as §1

[20] = system: blackgrass (Alopecurus myosuroides); test: as above; settings: approx. 10 d, 0 = no effect, 100 = complete control
Description: as §1

| Compound | Kochia plant response rating (0 to 100 scale) ([1]; 125 g ai/ha) | Foxtail, Giant plant response rating (0 to 100 scale) ([2]; 125 g ai/ha) | Foxtail, Giant plant response rating (0 to 100 scale) ([2]; 500 g ai/ha) | Pigweed plant response rating (0 to 100 scale) ([3]; 125 g ai/ha) | Pigweed plant response rating (0 to 100 scale) ([3]; 500 g ai/ha) | Barnyardgrass plant response rating (0 to 100 scale) ([4]; 125 g ai/ha) | Barnyardgrass plant response rating (0 to 100 scale) ([4]; 500 g ai/ha) | Ryegrass, Italian plant response rating (0 to 100 scale) ([5]; 125 g ai/ha) | Ryegrass, Italian plant response rating (0 to 100 scale) ([5]; 500 g ai/ha) | Ragweed plant response rating (0 to 100 scale) ([6]; 125 g ai/ha) | Ragweed plant response rating (0 to 100 scale) ([6]; 500 g ai/ha) | Plant response rating, Flood, Sedge, Umbrella [7] | Plant response rating, Flood, Barnyardgrass [8] | Plant response rating, Flood, Rice [9] | Plant response rating, Flood, Ducksalad [10] | Galium plant response rating (0 to 100 scale) ([11]; 125 g ai/ha) | Galium plant response rating (0 to 100 scale) ([11]; 500 g ai/ha) | Kochia plant response rating (0 to 100 scale) ([12]; 125 g ai/ha) | Kochia plant response rating (0 to 100 scale) ([12]; 500 g ai/ha) | Corn plant response rating (0 to 100 scale) ([13]; 125 g ai/ha) | also measured |
| --- | --- | --- | --- | --- | --- | --- | --- | --- | --- | --- | --- | --- | --- | --- | --- | --- | --- | --- | --- | --- | --- |
| O=C(Nc1cccc(F)c1F)C1c2nncn2CC1c1ccc(Cl)cc1 (centres unmarked) [Compound 7] | 0 | 40 | 80 | 0 | 20 | 30 | 70 | 0 | 0 | 0 | 50 | 0 | 0 | 15 | 50 | 40 | 50 | 0 | 40 | 20 | Kochia plant response rating (0 to 100 scale) ([1]; 500 g ai/ha): 40; Corn plant response rating (0 to 100 scale) ([13]; 500 g ai/ha): 30; Foxtail, Giant plant response rating (0 to 100 scale) ([14]; 125 g ai/ha): 20; Foxtail, Giant plant response rating (0 to 100 scale) ([14]; 500 g ai/ha): 70; Pigweed plant response rating (0 to 100 scale) ([15]; 125 g ai/ha): 0; Pigweed plant response rating (0 to 100 scale) ([15]; 500 g ai/ha): 50; Barnyardgrass plant response rating (0 to 100 scale) ([16]; 125 g ai/ha): 20; Barnyardgrass plant response rating (0 to 100 scale) ([16]; 500 g ai/ha): 70; Wheat plant response rating (0 to 100 scale) ([17]; 125 g ai/ha): 0; Wheat plant response rating (0 to 100 scale) ([17]; 500 g ai/ha): 20; Ryegrass, Italian plant response rating (0 to 100 scale) ([18]; 125 g ai/ha): 0; Ryegrass, Italian plant response rating (0 to 100 scale) ([18]; 500 g ai/ha): 20; Ragweed plant response rating (0 to 100 scale) ([19]; 125 g ai/ha): 0; Ragweed plant response rating (0 to 100 scale) ([19]; 500 g ai/ha): 60; Blackgrass plant response rating (0 to 100 scale) ([20]; 125 g ai/ha): 0; Blackgrass plant response rating (0 to 100 scale) ([20]; 500 g ai/ha): 0 |
| CCc1nnc2n1CC(c1ccc(C(F)(F)F)cc1)C2C(=O)Nc1cccc(F)c1F (centres unmarked) [Compound 8, N-(2,3-difluorophenyl)-3-ethyl-6,7-dihydro-6-[4-(trifluoromethyl)phenyl]-5H-pyrrolo[2,1-c]-1,2,4-triazole-7-carboxamide] | 0 | 30 | 90 | 20 | 50 | 30 | 70 | 0 | 0 | 0 | 0 | 0 | 0 | 0 | 40 | 30 | 50 | 0 | 40 | 0 | Corn plant response rating (0 to 100 scale) ([13]; 500 g ai/ha): 0; Foxtail, Giant plant response rating (0 to 100 scale) ([14]; 125 g ai/ha): 20; Foxtail, Giant plant response rating (0 to 100 scale) ([14]; 500 g ai/ha): 60; Pigweed plant response rating (0 to 100 scale) ([15]; 125 g ai/ha): 20; Pigweed plant response rating (0 to 100 scale) ([15]; 500 g ai/ha): 60; Barnyardgrass plant response rating (0 to 100 scale) ([16]; 125 g ai/ha): 20; Barnyardgrass plant response rating (0 to 100 scale) ([16]; 500 g ai/ha): 50; Wheat plant response rating (0 to 100 scale) ([17]; 125 g ai/ha): 0; Wheat plant response rating (0 to 100 scale) ([17]; 500 g ai/ha): 0; Ryegrass, Italian plant response rating (0 to 100 scale) ([18]; 125 g ai/ha): 0; Ryegrass, Italian plant response rating (0 to 100 scale) ([18]; 500 g ai/ha): 0; Ragweed plant response rating (0 to 100 scale) ([19]; 125 g ai/ha): 0; Ragweed plant response rating (0 to 100 scale) ([19]; 500 g ai/ha): 20; Blackgrass plant response rating (0 to 100 scale) ([20]; 125 g ai/ha): 0; Blackgrass plant response rating (0 to 100 scale) ([20]; 500 g ai/ha): 0 |
